Like-named read-outs stand apart in the source and are kept apart here.
Assay: Transport studies across Caco-2 monolayers (P app, efflux ratio)
Assay type: in vitro ADME
Conditions: human; for Papp A→B at 120 min, 500 μM / Papp B→A at 120 min, 500 μM: Caco-2 Model, 500 μM compound; for Papp A→B at 120 min, 500 μM: read-out: P app (apical to basolateral); for Papp B→A at 120 min, 500 μM: read-out: P app (basolateral to apical)
[1] = Caco-2, Caco-2 monolayers, read-out: efflux ratios (Er)
[2] = Caco-2, efflux ratio P app(basolateral-apical)/P app(apical-basolateral), with or without 200 μM Borneol (see label), read-out: E r
[3] = with or without 200 μM Borneol (see label)

efflux ratio at 120 min, 500 μM [1] | efflux ratio at 120 min, 500 μM [2] | Papp A→B at 120 min, 500 μM [3] | Papp B→A at 120 min, 500 μM [3] | SMILES
1 to 1.1 | 1.05 | 0.546 ± 0.04 ×10⁻⁶ cm/s | 0.573 ± 0.037 ×10⁻⁶ cm/s | CC(C)=CCC[C@](C)(O[C@@H]1O[C@H](CO)[C@@H](O)[C@H](O)[C@H]1O)[C@H]1CC[C@]2(C)[C@@H]1[C@H](O)C[C@@H]1[C@@]3(C)CC[C@H](O)C(C)(C)[C@@H]3[C@@H](O[C@@H]3O[C@H](CO)[C@@H](O)[C@H](O)[C@H]3O[C@@H]3O[C@@H](C)[C@H](O)[C@@H](O)[C@H]3O)C[C@]12C [GRe, ginsenoside Re]
1 to 1.1 | 1.05 | 0.348 ± 0.042 ×10⁻⁶ cm/s | 0.364 ± 0.029 ×10⁻⁶ cm/s | CC(C)=CCC[C@](C)(O[C@@H]1O[C@H](CO)[C@@H](O)[C@H](O)[C@H]1O)[C@H]1CC[C@]2(C)[C@@H]1[C@H](O)C[C@@H]1[C@@]3(C)CC[C@H](O)C(C)(C)[C@@H]3[C@@H](O[C@@H]3O[C@H](CO)[C@@H](O)[C@H](O)[C@H]3O)C[C@]12C [GRg1, ginsenoside Rg1]
